Earlier results in article PMC3172902 (British Journal of Cancer, 2011).

Target: CDK2 (Homo sapiens, UniProt P24941)
Assay: cell-free CDK2 inhibition (value printed without citation; method not described)
Format: biochemical

IC50: 19 nM
Substance: NU6252
